According to patent publication US12065416B2, “cGAS antagonist compounds” (IMMUNESENSOR THERAPEUTICS, INC., priority 2016, dated 2024):

Target: T1, recombinant cGAS (aa147-522) (Homo sapiens, UniProt Q8N884)
T1 construct: recombinant cGAS (aa147-522); His6-SUMO (N, cleaved yes); made in house; host or cells: E. coli BL21/pLys
Experiment: In vitro assay for inhibition of cGAS activity (ATP consumption, Kinase Glo)
Assay type: biochemical
Details: 37° C. 20 minutes, read-out: Activity (Inhibition of cGAS enzyme activity in vitro, IC50)
Procedure: cDNA encoding full-length or amino acids 147-520 of human cGAS is inserted into a modified pET28a vector containing an in-frame His6-SUMO tag. The E. coli strain BL21/pLys harboring the plasmid is induced with 0.5 mM IPTG at 18° C. overnight. His6-SUMO tag was removed by a SUMO proease following purification of the HiS-SUMO-cGAS as described previously (Sun et al, 2013, Science 339, 786).
A40 μL mixture containing 1.5 ng/μL of recombinant cGAS (aa147-522) and serial dilutions of a test compound or DMSO was added to a 96-well plate and incubated at 37° C. for 20 minutes. At the end of reaction, 20 μL of Kinase Glo (Promega) was added and chemiluminescence measured with a luminometer. Inhibitory effect of a compound is evaluated by plotting percentage of ATP consumption against logarithm of compound concentrations. IC50 value was calculated using Graphpad (Sigma).

T1 sequence (Q8N884 147-522): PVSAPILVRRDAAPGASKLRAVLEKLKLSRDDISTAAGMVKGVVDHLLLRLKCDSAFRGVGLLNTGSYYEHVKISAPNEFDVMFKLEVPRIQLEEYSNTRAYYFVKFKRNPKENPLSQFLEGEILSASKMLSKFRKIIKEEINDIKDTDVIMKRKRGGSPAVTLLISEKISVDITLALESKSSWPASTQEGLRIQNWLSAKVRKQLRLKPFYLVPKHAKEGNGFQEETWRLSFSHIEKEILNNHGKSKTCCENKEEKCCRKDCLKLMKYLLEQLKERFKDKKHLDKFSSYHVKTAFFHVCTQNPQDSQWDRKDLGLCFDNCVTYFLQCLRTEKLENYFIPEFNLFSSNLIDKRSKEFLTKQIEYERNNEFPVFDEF

O=C1NC(=O)/C(=C/c2ccncc2)S1 [Ex1]
IC50: ≤ 0.5 µM

O=C1NC(=O)/C(=C/c2ccncc2)S1 [Ex2]
IC50: ≥ 10 µM

Cc1cnccc1/C=C1\SC(=O)NC1=O [Ex3]
IC50: ≤ 0.5 µM

O=C1NC(=O)/C(=C/c2ccncc2C(F)(F)F)S1 [Ex4]
IC50: ≥ 10 µM

O=C1NC(=O)/C(=C2\CCCc3cnccc32)S1 [Ex5]
IC50: ≤ 0.5 µM

O=C1NC(=O)/C(=C/c2c[nH]cn2)S1 [Ex6]
IC50: ≥ 10 µM

O=C1NC(=O)/C(=C/c2cnccn2)S1 [Ex7]
IC50: ≥ 10 µM

O=C1NC(=O)/C(=C/c2cncnc2)S1 [Ex8]
IC50: ≥ 10 µM

N=C1NC(=O)/C(=C/c2ccncc2)S1 [Ex9]
IC50: ≥ 10 µM

CN1C(=O)S/C(=C\c2cc(O)c(O)cc2F)C1=O [Ex10]
IC50: ≥ 10 µM

C/C(=C1/SC(=O)NC1=O)c1ccncc1 [Ex12]
IC50: ≤ 0.5 µM

COc1cc2c(cc1O)CC/C2=C1/SC(=O)N(C)C1=O [Ex13]
IC50: ≥ 10 µM

O=C1NC(=O)/C(=C/c2ccncc2)N1 [Ex14]
IC50: 0.5 to 10 µM

O=C1NC(=O)/C(=C/c2ccnnc2)N1 [Ex15]
IC50: ≥ 10 µM

COc1cc(/C=c2\sc3ncc(C)n3c2=O)c(Br)cc1O [Ex17]
IC50: ≥ 10 µM

C#Cc1cc(O)c(OC)cc1/C=C1\SC(=O)N(C)C1=O [Ex19]
IC50: ≥ 10 µM

COc1cc(/C(Br)=C2\SC(=O)N(C)C2=O)c(Br)cc1O [Ex20]
IC50: ≥ 10 µM

COc1cc(/C=C2\SC(=O)N(C)C2=O)c(Br)cc1NS(C)(=O)=O [Ex22]
IC50: ≥ 10 µM

COc1cc(/C=C2\SC(=O)N(C)C2=O)c(Br)cc1NS(=O)(=O)c1ccccc1 [Ex23]
IC50: ≥ 10 µM

COc1cc(/C=C2\SC(=O)N(C)C2=O)c(Br)cc1NS(=O)(=O)c1ccc(C)cc1 [Ex24]
IC50: ≥ 10 µM

CN1C(=O)S/C(=C\c2cc3oc(=O)[nH]c3cc2Br)C1=O [Ex25]
IC50: 0.5 to 10 µM

O=C1/C(=C/c2cc3oc(=O)[nH]c3cc2Br)Sc2ncccc21 [Ex26]
IC50: 0.5 to 10 µM

CN1C(=O)S/C(=C\c2cc(Oc3ccccc3)c(O)cc2Br)C1=O [Ex27]
IC50: 0.5 to 10 µM

COc1cc(/C=C2\SC(=O)N(C)C2=O)c(F)cc1O [Ex29]
IC50: ≥ 10 µM

COc1cc(/C=C2\SC(=O)N(C)C2=O)c(C(F)(F)F)cc1O [Ex31]
IC50: 0.5 to 10 µM

COc1cc(/C=C2\SC(=O)N(C)C2=O)c(Br)c(Cl)c1O [Ex34]
IC50: 0.5 to 10 µM

COc1cc(/C=C2\SC(=O)N(C)C2=O)c(Br)cc1-c1nn[nH]n1 [Ex35]
IC50: 0.5 to 10 µM

CN1C(=O)S/C(=C\c2cc3nn[nH]c3cc2Br)C1=O [Ex36]
IC50: ≥ 10 µM

COc1cc(/C=C/C=C2\SC(=O)N(C)C2=O)c(Br)cc1O [Ex37]
IC50: 0.5 to 10 µM

COc1cc(/C=c2\sc3n(c2=O)CCN=3)c(Br)cc1O [Ex40]
IC50: 0.5 to 10 µM

COc1cc(/C=c2\sc3n(c2=O)CCN=3)c(Cl)cc1O [Ex41]
IC50: 0.5 to 10 µM

COc1cc(/C=c2\sc3n(c2=O)CCCN=3)c(Br)cc1O [Ex42]
IC50: 0.5 to 10 µM

COc1cc(/C=c2\sc3n(c2=O)CCCN=3)c(Cl)cc1O [Ex43]
IC50: 0.5 to 10 µM

COc1cc(/C=C2\Sc3ncccc3C2=O)c(Br)c(Cl)c1O [Ex46]
IC50: ≤ 0.5 µM

COc1cc(/C=C2\Sc3ncccc3C2=O)c(Br)c(Br)c1O [Ex47]
IC50: 0.5 to 10 µM

COc1cc(/C=C2\Sc3ncc(F)cc3C2=O)c(Br)cc1O [Ex48]
IC50: ≤ 0.5 µM

COc1cc(/C=C2\Sc3cnccc3C2=O)c(Br)cc1O [Ex49]
IC50: ≤ 0.5 µM

COc1cc(/C=C2\Sc3nccnc3C2=O)c(Br)cc1O [Ex50]
IC50: 0.5 to 10 µM

COc1cc(/C=C2\Sc3ncncc3C2=O)c(Br)cc1O [Ex51]
IC50: 0.5 to 10 µM

CN1C(=O)S/C(=C\c2ccc(O)cc2Br)C1=O [Ex52]
IC50: 0.5 to 10 µM

CN1C(=O)S/C(=C\c2cc(OCc3ccc(NC(=O)c4ccncc4)nc3)c(O)cc2Br)C1=O [Ex54]
IC50: ≤ 0.5 µM

CN1C(=O)S/C(=C\c2cc(OCc3ccc(NC(=O)c4cccnc4)nc3)c(O)cc2Br)C1=O [Ex55]
IC50: 0.5 to 10 µM

CN1C(=O)S/C(=C\c2cc(OCc3ccc(NC(=O)c4ccccn4)nc3)c(O)cc2Br)C1=O [Ex56]
IC50: 0.5 to 10 µM

CCc1cc(/C=C2\SC(=O)N(C)C2=O)c(Br)cc1O [Ex58]
IC50: 0.5 to 10 µM

CC(=O)c1cc(/C=C2\SC(=O)N(C)C2=O)c(Br)cc1O [Ex59]
IC50: 0.5 to 10 µM

COc1cc(/C=C2\SC(=O)N(C)C2=O)c(Br)cc1NS(=O)(=O)C(F)(F)F [Ex60]
IC50: 0.5 to 10 µM

CC(=O)Nc1ncc(S(=O)(=O)Nc2cc(Br)c(/C=C3\SC(=O)N(C)C3=O)cc2OCc2ccccc2)s1 [Ex62]
IC50: 0.5 to 10 µM

COc1cc(/C=C2\SC(=O)N(C)C2=O)c(C)cc1O [Ex64]
IC50: 0.5 to 10 µM

CN1C(=O)S/C(=C\c2cc3cc[nH]c3cc2Br)C1=O [Ex66]
IC50: 0.5 to 10 µM

CSc1cc(/C=C2\SC(=O)N(C)C2=O)c(Br)cc1O [Ex69]
IC50: 0.5 to 10 µM

O=C1/C(=C/c2ccc(O)cc2Br)Sc2ncccc21 [Ex71]
IC50: ≤ 0.5 µM

O=C1/C(=C/c2cc(OCc3ccncc3)c(O)cc2Br)Sc2ncccc21 [Ex72]
IC50: ≤ 0.5 µM

COc1cc(/C=C2\Sc3ncccc3C2=O)c(Br)cc1Oc1cnc(N)s1 [Ex74]
IC50: 0.5 to 10 µM

COc1cc(/C=C2\Sc3ncccc3C2=O)c(C)cc1O [Ex76]
IC50: 0.5 to 10 µM

COc1cc(/C=C2\Sc3ncccc3C2=O)c(I)cc1O [Ex77]
IC50: ≤ 0.5 µM

O=C1/C(=C/c2cc3nn[nH]c3cc2Br)Sc2ncccc21 [Ex78]
IC50: ≤ 0.5 µM

CCc1cc(/C=C2\Sc3ncccc3C2=O)c(Br)cc1O [Ex79]
IC50: ≤ 0.5 µM

CN1C(=O)S/C(=C\c2cc(OCc3cnc(Nc4ccccn4)nc3)c(O)cc2Br)C1=O [Ex83]
IC50: 0.5 to 10 µM

CC(Oc1cc(/C=C2\SC(=O)N(C)C2=O)c(Br)cc1O)c1cnc(N)nc1 (centres unmarked) [Ex84]
IC50: ≤ 0.5 µM

CC(C)COc1cc(/C=C2\SC(=O)N(C)C2=O)c(Br)cc1O [Ex85]
IC50: 0.5 to 10 µM

CN1C(=O)S/C(=C\c2cc(OCc3ccccc3)c(O)cc2Br)C1=O [Ex88]
IC50: 0.5 to 10 µM

CN1C(=O)S/C(=C\c2cc(OCc3ccccn3)c(O)cc2Br)C1=O [Ex89]
IC50: 0.5 to 10 µM

CN1C(=O)S/C(=C\c2cc(OCc3ccn(Cc4ccccc4)c(=O)c3)c(O)cc2Br)C1=O [Ex91]
IC50: 0.5 to 10 µM

CN1C(=O)S/C(=C\c2cc(OCc3cnc(C4CC4)nc3)c(O)cc2Br)C1=O [Ex94]
IC50: 0.5 to 10 µM

CN1C(=O)S/C(=C\c2cc(OCc3cnc(C4CCNCC4)nc3)c(O)cc2Br)C1=O [Ex95]
IC50: 0.5 to 10 µM

CN1C(=O)S/C(=C\c2cc(OCc3cnc(-c4cccnc4)nc3)c(O)cc2Br)C1=O [Ex96]
IC50: 0.5 to 10 µM

CN1C(=O)S/C(=C\c2cc(OCc3cnc(-c4ccccn4)nc3)c(O)cc2Br)C1=O [Ex97]
IC50: 0.5 to 10 µM

CSc1ncc(COc2cc(/C=C3\SC(=O)N(C)C3=O)c(Br)cc2O)c(Cl)n1 [Ex98]
IC50: 0.5 to 10 µM

COc1nc(SC)ncc1COc1cc(/C=C2\SC(=O)N(C)C2=O)c(Br)cc1O [Ex99]
IC50: 0.5 to 10 µM

CSc1ncc(COc2cc(/C=C3\SC(=O)N(C)C3=O)c(Br)cc2O)c(SC)n1 [Ex100]
IC50: ≥ 10 µM

CN1C(=O)S/C(=C\c2cc(Oc3ccnc(N)c3)c(O)cc2Br)C1=O [Ex101]
IC50: 0.5 to 10 µM

CN1C(=O)S/C(=C\c2cc(Oc3ccc([N+](=O)[O-])nc3)c(O)cc2Br)C1=O [Ex102]
IC50: 0.5 to 10 µM

CC(Oc1cc(/C=C2\SC(=O)N(C)C2=O)c(Br)cc1O)c1cncnc1 (centres unmarked) [Ex103]
IC50: 0.5 to 10 µM

CC(Oc1cc(/C=C2\SC(=O)N(C)C2=O)c(Br)cc1O)c1cnc(Cl)nc1 (centres unmarked) [Ex104]
IC50: 0.5 to 10 µM

CNc1ncc(C(C)Oc2cc(/C=C3\SC(=O)N(C)C3=O)c(Br)cc2O)cn1 (centres unmarked) [Ex105]
IC50: 0.5 to 10 µM

CN1C(=O)S/C(=C\c2cc(OCc3cnc(N)nc3C3CC3)c(O)c(F)c2Br)C1=O [Ex109]
IC50: 0.5 to 10 µM

CNc1ncc(C(C)Oc2cc(/C=C3\SC(=O)N(C)C3=O)c(Br)c(F)c2O)cn1 (centres unmarked) [Ex111]
IC50: 0.5 to 10 µM

Nc1ncc(COc2cc(/C=C3\Sc4ncccc4C3=O)c(Br)cc2O)c(C(F)(F)F)n1 [Ex118]
IC50: ≤ 0.5 µM

CC(Oc1cc(/C=C2\Sc3ncccc3C2=O)c(Br)cc1O)c1cccnc1 (centres unmarked) [Ex119]
IC50: 0.5 to 10 µM

Cc1ncc(COc2cc(/C=C3\Sc4ncccc4C3=O)c(Br)cc2O)c(C)n1 [Ex120]
IC50: ≤ 0.5 µM

CC(Oc1cc(/C=C2\Sc3ncccc3C2=O)c(Br)cc1O)c1cnc(Cl)nc1 (centres unmarked) [Ex121]
IC50: ≤ 0.5 µM

CN1C(=O)S/C(=C\c2cc(OCc3ccc(=O)[nH]c3)c(O)cc2Br)C1=O [Ex125]
IC50: 0.5 to 10 µM

CN1CCC(COc2cc(/C=C3\SC(=O)N(C)C3=O)c(Br)cc2O)CC1 [Ex126]
IC50: 0.5 to 10 µM
